Experimental findings from PubChem BioAssay (NCI) are described below.

“And” between values parts separate entries of the source, which are not always exact repeats. Equal values may be shown once.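 Five compound concentrations were applied to cells in 96-well plates for 48 hours; endpoints were derived by simple linear interpolation of the resulting dose-response curve. Abbreviation: GI50, concentration required for 50% inhibition of growth. TGI: total growth inhibition.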

Among the test systems are MDA-MB-231 breast; SW-620 colon; OVCAR-5 ovarian; U251 CNS; RXF 393 renal; MALME-3M melanoma; UO-31 renal; MCF7 breast; EKVX NSCLC; T-47D breast.
Common to all, as to assay: NCI-60 cell line screen, 48 h

On to `CC(C)(C)c1ccc(Oc2ccc(N)cn2)cc1`, for which the GI50 was 31.7 µM in the experiment with MDA-MB-231 breast; more than 100 µM in the experiment on SW-620 colon; more than 100 µM in the experiment with OVCAR-5 ovarian; 49.2 µM in the experiment on U251 CNS; 49.6 µM in the experiment with RXF 393 renal; 39.7 µM with MALME-3M melanoma. In addition, the GI50 in the experiment on UO-31 renal was 1.75 µM; with MCF7 breast, 46.5 µM; in the experiment on EKVX NSCLC, 28.2 µM; in the experiment on T-47D breast it was 26.2 µM. Also, the TGI in the experiment with MDA-MB-231 breast, in the experiment with SW-620 colon, in the experiment on OVCAR-5 ovarian, in the experiment on U251 CNS, in the experiment on RXF 393 renal and in the experiment on MALME-3M melanoma was more than 100 µM each time. The TGI in the experiment on UO-31 renal, in the experiment on MCF7 breast, with EKVX NSCLC and in the experiment on T-47D breast was more than 100 µM each time.
Take `COc1ccc(Cc2coc3ccccc3c2=O)cc1OC`: the TGI in the experiment with MDA-MB-231 breast, with SW-620 colon, with OVCAR-5 ovarian, in the experiment with U251 CNS, with RXF 393 renal and with MALME-3M melanoma was more than 100 µM in each case. Further, the TGI in the experiment on UO-31 renal, in the experiment with MCF7 breast, in the experiment on EKVX NSCLC and with T-47D breast was more than 100 µM in each case.
Take `CC1(C)CNc2cc(NC(=O)c3cccnc3NCc3ccncc3)ccc21`: the GI50 is 29.2 µM with MDA-MB-231 breast; 48.2 µM in the experiment on SW-620 colon; 50.9 µM in the experiment on OVCAR-5 ovarian; 39.1 µM in the experiment with U251 CNS; 11.7 µM in the experiment with RXF 393 renal; 15.9 µM in the experiment with MALME-3M melanoma. Besides, the GI50 is 20 µM with UO-31 renal, 23 µM in the experiment with MCF7 breast, 23.6 µM in the experiment on EKVX NSCLC and 17 µM with T-47D breast. The TGI with MDA-MB-231 breast is more than 100 µM; in the experiment on SW-620 colon, more than 100 µM; with OVCAR-5 ovarian it was more than 100 µM; with U251 CNS, more than 100 µM; in the experiment on RXF 393 renal, 64.9 µM; in the experiment on MALME-3M melanoma it was 84.9 µM. Also, the TGI with UO-31 renal is more than 100 µM; with MCF7 breast, more than 100 µM; in the experiment with EKVX NSCLC, more than 95.2 µM; with T-47D breast, more than 88.5 µM.
On to `C=C/C=C/[C@@H](O)CC(=C)C[C@H]1OC2[C@H](C)[C@@H](OC(=O)C[C@H]3C[C@H](OC(C)=O)C[C@@]4(C[C@@](C)(O)C[C@H](CC(=C)[C@@H](C)[C@H](OC(C)=O)[C@H](C)C(=O)C[C@@H]5C[C@H](OC)CC6(C[C@@H](O)C[C@H](/C=C\CCC[C@H]7O[C@](O)(C=C[C@H]7C)[C@H]2O)O6)O5)O4)O3)[C@@H]1O`, for which the GI50 was 0.000409 µM and 0.0025 µM with MDA-MB-231 breast; 0.00123 µM and 0.0025 µM in the experiment with SW-620 colon; 0.00293 µM and 0.0025 µM in the experiment on OVCAR-5 ovarian; 0.0025 µM in the experiment with RXF 393 renal; 0.0025 µM with MALME-3M melanoma; less than 0.0025 µM in the experiment with MCF7 breast. Moreover, the TGI in the experiment with MDA-MB-231 breast is 0.00362 µM; in the experiment with SW-620 colon, more than 25 µM; in the experiment with OVCAR-5 ovarian it was more than 25 µM; in the experiment with U251 CNS, more than 25 µM; in the experiment with RXF 393 renal, 0.0542 µM; in the experiment on UO-31 renal, more than 10.9 µM. Besides, the TGI in the experiment on MCF7 breast is less than 0.0025 µM; in the experiment with EKVX NSCLC, more than 25 µM; in the experiment on T-47D breast, more than 25 µM.
In the case of `CC1=C(c2ccccc2)C(O)(c2ccccc2)C(C)C1=O` (stereo not given), the GI50 with MDA-MB-231 breast is 14 µM; in the experiment with SW-620 colon, 6.18 µM; with OVCAR-5 ovarian, 53.1 µM; in the experiment on U251 CNS, 22.1 µM; in the experiment on RXF 393 renal, 17.4 µM; in the experiment with MALME-3M melanoma it was 27.7 µM. The GI50 in the experiment with UO-31 renal was 13.2 µM; in the experiment with MCF7 breast, 13 µM; with EKVX NSCLC it was 35.1 µM; in the experiment on T-47D breast, 23.1 µM. Moreover, the TGI in the experiment with MDA-MB-231 breast, in the experiment with SW-620 colon, in the experiment on OVCAR-5 ovarian, with U251 CNS, in the experiment on RXF 393 renal and in the experiment on MALME-3M melanoma was more than 100 µM in each case. Also, the TGI with UO-31 renal, in the experiment on MCF7 breast, in the experiment with EKVX NSCLC and in the experiment with T-47D breast was more than 100 µM each time.
With `CCc1ccc(CCC(=O)Nc2ncc(Cc3ccc(Cl)cc3)s2)o1`, the GI50 in the experiment on MDA-MB-231 breast was 0.699 µM; in the experiment with SW-620 colon it was 0.375 µM; in the experiment on OVCAR-5 ovarian it was 0.615 µM; with U251 CNS, 0.371 µM; in the experiment with RXF 393 renal it was 0.226 µM; in the experiment with MALME-3M melanoma, 0.466 µM. The GI50 in the experiment on UO-31 renal was 0.65 µM; with MCF7 breast it was 0.328 µM; in the experiment on EKVX NSCLC, 0.527 µM; in the experiment on T-47D breast it was 1.48 µM. Further, the TGI is more than 100 µM in the experiment on MDA-MB-231 breast; more than 100 µM in the experiment with SW-620 colon; more than 100 µM with OVCAR-5 ovarian; more than 100 µM in the experiment with U251 CNS; 0.675 µM with RXF 393 renal; more than 100 µM in the experiment on MALME-3M melanoma. Also, the TGI in the experiment with UO-31 renal, with MCF7 breast, in the experiment with EKVX NSCLC and in the experiment with T-47D breast was more than 100 µM in each case.
